Reference: PMC8596125, “Self‐Stabilized Supramolecular Assemblies Constructed from PEGylated Dendritic Peptide Conjugate for Augmenting Tumor Retention and Therapy” (Advanced Science, 2021)
Several values for one entry are separate records, joined by “and”; a condition that tells them apart may be missing. Identical values can stand only once.

Experiments:
[1] = system: 4T1 cells; test: In vitro cellular uptake (flow cytometry, CLSM); format: cell-based, mouse; conditions: 1 µg Ppa mL-1, 2, 6 and 24 h
Procedure: CCK-8 assay. 5×103 L02 normal cells per well were seeded in a 96-well plate, and then treated by Ppa and SSAs for 24 h incubation or PDP for 24 h and 48 h incubation.
Cell viability of each group was obtained through the same process.
1.3.9 In vitro cellular uptake
To determine cellular uptake and intracellular distribution of SSAs, 4T1 cells (2×104) were seeded on each glass coverslip to allow attachment, and incubated with Ppa and PDPP for 1 h, 3 h and 6 h, while Ppa was used as a control. After nuclear staining by Hoechst 33258, cells were washed by PBS and then observed under a confocal laser scanning microscopy (CLSM) (excitation and emission wavelengths:
630 nm and 678 nm), and images were captured by Leica Confocal Software.
For quantitative characterization of uptake of SSAs by cells, 4T1 cells were seeded in 6 well plates at 1×10^5 cells per well and incubated for 2 h, 6 h and 24 h. After the spent medium was replaced with fresh one, cells were treated by Ppa and SSAs at an equivalent concentration of 1 μg Ppa mL-1 for pre-specified times. Cells were then washed with PBS twice, harvested, and suspended in 100 μL of PBS for flow cytometer analyses. 20,000 events were collected and Flowjo software was used for generating each histogram.
For TEM, 4T1 cells cultured in 6 cm dishes were incubated with Ppa and SSAs. […]

[2] = system: 4T1 cells; test: Cytotoxicity, CCK-8 assay, 4T1; format: cell-based, mouse
Procedure: (§1) The CCK-8 assay was used to examine the photodynamic therapeutic effect of SSAs on cell viability against three cell lines. 4×103 4T1 cells per well were seeded in a 96-well plate, and then incubated overnight. The cells were treated with different concentrations of Ppa and SSAs at an equivalent Ppa dose. After 24 h incubation, the medium was replaced with fresh one, and the wells were irradiated using a 660 nm laser with 1 J cm−2. After 24 h, the spent media was replaced and the cell viability was assessed using the CCK-8 reagent. The absorbance at […] of each well was recorded on a microplate reader. Untreated cells were served as a control. Results were presented as the average cell viability by following the manufacturer’s instruction. IC50 values were calculated by using nonlinear regression in software Graphpad Prism7. The cytotoxicity of SSAs and Ppa with or without laser against A549 cell line was also measured through the same procedure.
The cytotoxicity of SSAs and PDP without laser irradiation was also measured by […]

[3] = system: A549 human non-small cell lung tumor; test: In vivo photodynamic therapy, A549 xenograft model; set-up: species or system mouse; conditions: nude mice with A549 tumors, i.v. 5 mg Ppa kg-1 on day 1, 14, 21, 28, 660 nm 200 mW cm-2 8 min, n = 5
Procedure: and stained by the terminal deoxynucleotidyl transferase dUTP nick end labeling (TUNEL) and CD31 for histology studies.
For studies with an A549 human non-small cell lung tumor model, nude mice were randomly allocated into three groups (n= 5): saline (control), Ppa, and SSAs when the average tumor volume reached 50 mm3. Saline, Ppa, and SSAs (5 mg Ppa kg-1) were injected intravenously on day 1, 14, 21 and 28. At 3 d post injection, the tumors from groups Ppa, and SSAs were irradiated with a 660 nm laser (200 mW cm-2, 8 min). The tumor growth was monitored and the tumor size was measured every 3 d. The mice were sacrificed on day 61 after treatment.
1.3.16 RNA-seq and enriched signaling pathways analysis
4T1 cells (106/culture) were treated by SSAs and free Ppa with or without laser.
Untreated cells were set as a control. Total RNA was extracted (TRIzol Reagent, Thermo Fisher Scientific, USA) and rRNAs were removed by Ribo-zero™ rRNA Removal Kit (Epicentre, CA, USA). Relative abundance of transcripts was calculated with kallisto. The raw RNA-Seq count data were processed by DESeq R packages to obtain differentially expressed genes (DEGs).[4] […]
Enrichment analyses were performed according to the KEGG database. For gene set enrichment analysis (GSEA), all gene sets were analyzed against the curated gene sets […]

[4] = system: A549 cells; test: Cytotoxicity, CCK-8 assay, A549; format: cell-based, human
Procedure: as §1, with “procedure. […]” for “procedure.”

[5] = In vivo pharmacokinetics; set-up: species or system mouse; conditions: healthy BALB/c mice, single i.v. 5 mg Ppa kg-1, plasma fluorescence, two-compartment model, mean ± s.d., n = 7
Procedure: 1.3.13 In vivo pharmacokinetics
Healthy pathogen-free BALB/c mice (5-6 weeks, female) were used to determine the pharmacokinetics of SSAs (n = 7). The mice were intravenously injected with Ppa and SSAs (5 mg Ppa kg-1), respectively. Blood (20 μL) was collected at diﬀerent time […]
Plasma was diluted to 50-fold with DMSO for fluorescent measurements using a BioTek plate reader. The pharmacokinetic parameters were calculated using a two-compartment model by WinNonlin 5.2 software. […]

Q: With `C=Cc1c(C)c2cc3nc(c4c5[nH]c(cc6nc(cc1[nH]2)C(C)=C6CC)c(C)c5C(=O)C4)[C@@H](CCC(=O)O)[C@@H]3C` [Ppa, pyropheophorbide a] as the compound, how does the Cellular uptake [1] read?
A: Its Cellular uptake is “better uptake efficiency compared with SSAs”.

Q: And the “Cytotoxicity with laser irradiation” value ([2]; 24 h incubation, 660 nm laser, CCK-8, n = 3)?
A: Its value is “notable cytotoxicity”.

Q: What about the “Concentration above which very cytotoxic without irradiation” value ([2]; no light, CCK-8) of the same compound?
A: The value was “higher than 1 µg mL^−1”.

Q: What about the Tumor growth [3] of the same compound?
A: The Tumor growth was “modest tumor growth suppression”.

Q: And the “Cytotoxicity without laser irradiation” value [4]?
A: The value was “much higher cytotoxicity”.

Q: What about the “Cytotoxicity under laser irradiation” value ([4]; 660 nm laser) of the same compound?
A: Its value is “strong cytotoxicity”.

Q: And the “AUC (area under the drug concentration)” value [5]?
A: Its value is 2600 ± 110 ng·h/mL.

Q: And the “MRT (mean residence time)” value [5]?
A: The value was 3.64 ± 1.02 h.

Q: And the “t1/2 (half-life of the drug)” value [5]?
A: Its value is 4.29 ± 0.47 h and 4.29 h.
